Reference: US20250263459A1, “STABILIZED PACAP PEPTIDE” (SENJU PHARMACEUTICAL CO., LTD., priority 2019, published 2025)
Non-standard residues stand in square brackets, D forms with d. Residues, ends and D or L forms follow the SMILES beside them. ξ: configuration not given here. ξAla(tetrazol-5-yl) = NC(Cc1nnn[nH]1)C(=O)O; Aib = CC(C)(N)C(=O)O

How the values were obtained:
[1] = Stability test 1: survival rate of peptide in phosphate buffer (pH 7.0) after storage, HPLC; type: physicochemical; details: 100 μM peptide, 0.1% phosphate buffer pH 7.0, 40° C., 4 weeks (Table 4)
Description: The 1.0 mM peptide solutions were then diluted with phosphate buffer to 100 μM. […] The prepared peptide solutions were incubated for one month or 2 months in a 40° C. thermostatic bath to obtain stored samples.
Using the total weight of the aqueous peptide solution and storage vessel as the specimen weight, measurements were recorded as the specimen weights before storage and the specimen weights after storage under different storage conditions. The empty weight of the storage vessel was also measured, and the moisture permeability was determined by the following formula.
After stirring the standard sample and the stored samples with a vortex mixer, each peptide solution was transferred to an HPLC vial (Deactivated Qsert vial by Waters Co.). Reverse-phase HPLC (HPLC system: Prominence by Shimadzu Corp.) was conducted under the conditions shown in Table 3 below for analysis of the peptide solutions, and chromatograms were obtained.
The peak area value for the peptide in the chromatogram was calculated, and the survival rate (survival rate before correction for water) was calculated using formula (2). The survival rate after correction for water was also calculated from the survival rate before correction for water using formula (3) to take into account the permeability of the container.
Peptide solutions prepared by the same method as [Measuring sample preparation 1] for the peptides synthesized in Example 2 (peptides 13 to 16) were incubated for 2 weeks and 8 weeks in a thermostatic bath at 40° C. to obtain stored samples.
Peptide solutions prepared by the same method as [Measuring sample preparation 1] for the peptides synthesized in Example 2 (peptides 17 to 21) were incubated for 4 weeks in a thermostatic bath at 40° C. to obtain stored samples.
A peptide solution prepared by the same method as [Measuring sample preparation 1] for peptide 22 synthesized in Example 2 was incubated for 1 week and 4 weeks in a thermostatic bath at 40° C. to obtain stored samples.

[2] = as above; type: physicochemical; details: 100 μM peptide, 0.1% phosphate buffer pH 7.0, head prints 80° C., 8 weeks (Table 4)
[3] = 100 μM peptide, Tris buffer pH 7.0, 60° C.
Description: The solution was filtered with a Chromatdisk (product of Merck Millipore, Millex-GV, 0.22 μm). The filtrate was diluted to 100 μM with Tris buffer (pH 7.0) and dispensed into a tube (Protein LoBind Tube by Eppendorf Co.). The prepared peptide solutions were incubated for 1 week or 2 weeks in a 60° C. thermostatic bath to obtain stored samples. A simultaneously prepared sample among the peptide solutions that was not stored was used as a standard sample (initial sample). The standard sample and the stored samples were stored at −30° C. until sample analysis.
• Column: XSelect CSH C18 by Waters Co., 5 μm, 4.6×250 mm • Guard column: XSelect CSH C18 by Waters Co., 5 μm, 4.6×20 mm Guard Cartridge • Detection wavelength: 220 nm • Mobile phase A: 0.1% formic acid aqueous solution • Mobile phase B: 0.1% acetonitrile formate solution • Measuring time: 20 minutes • Measuring sample injection rate: 50 μL • Flow rate: 1.0 mL/min • Column temperature: 40° C. • Sample cooler: 25° C. • Mobile phase delivery: The mixing ratio of mobile phase A and mobile phase B was varied as shown in Table 14 for linear concentration gradient control.

Compound | survival rate after correction for water, 40° C. 4 week [1] | survival rate after correction for water, 80° C. 8 week [2] | survival rate after correction for water, 60° C. 1 week preservation ([3]; 1 week) | survival rate after correction for water, 60° C. 2 weeks preservation ([3]; 2 weeks)
CC[C@H](C)[C@H](NC(=O)CNC(=O)C(Cc1nnn[nH]1)NC(=O)[C@H](CO)NC(=O)[C@@H](N)Cc1c[nH]cn1)C(=O)N[C@@H](Cc1ccccc1)C(=O)N[C@@H](C)C(=O)NC(Cc1nnn[nH]1)C(=O)N[C@@H](C)C(=O)N[C@@H](Cc1ccc(O)cc1)C(=O)N[C@@H](CO)C(=O)N[C@@H](CCCNC(=N)N)C(=O)N[C@@H](Cc1ccc(O)cc1)C(=O)N[C@@H](CCCNC(=N)N)C(=O)N[C@@H](CCCCN)C(=O)N[C@@H](CCC(N)=O)C(=O)N[C@@H](CCSC)C(=O)N[C@@H](C)C(=O)N[C@H](C(=O)N[C@@H](CCCCN)C(=O)N[C@@H](CCCCN)C(=O)N[C@@H](Cc1ccc(O)cc1)C(=O)N[C@@H](CC(C)C)C(=O)N[C@@H](C)C(=O)N[C@@H](C)C(=O)N[C@H](C(=O)N[C@@H](CC(C)C)C(N)=O)C(C)C)C(C)C (stereo partly shown) [Peptide 1, HSTzGI FATzAY SRYRK QMAVK KYLAA VL] (H-HS[ξAla(tetrazol-5-yl)]GIFA[ξAla(tetrazol-5-yl)]AYSRYRKQMAVKKYLAAVL-NH2) | 91.1% | 81.5% | – | –
CC[C@H](C)[C@H](NC(=O)CNC(=O)C(Cc1nnn[nH]1)NC(=O)[C@H](CO)NC(=O)[C@@H](N)Cc1c[nH]cn1)C(=O)N[C@@H](Cc1ccccc1)C(=O)N[C@@H](C)C(=O)NC(Cc1nnn[nH]1)C(=O)N[C@@H](CO)C(=O)N[C@@H](Cc1ccc(O)cc1)C(=O)N[C@@H](C)C(=O)N[C@@H](CCCNC(=N)N)C(=O)N[C@@H](Cc1ccc(O)cc1)C(=O)N[C@@H](CCCNC(=N)N)C(=O)N[C@@H](CCCCN)C(=O)N[C@@H](CCC(N)=O)C(=O)N[C@@H](CCSC)C(=O)N[C@@H](C)C(=O)N[C@H](C(=O)N[C@@H](CCCCN)C(=O)N[C@@H](CCCCN)C(=O)N[C@@H](Cc1ccc(O)cc1)C(=O)N[C@@H](CC(C)C)C(=O)N[C@@H](C)C(=O)N[C@@H](C)C(=O)N[C@H](C(=O)N[C@@H](CC(C)C)C(N)=O)C(C)C)C(C)C (stereo partly shown) [Peptide 2, HSTzGI FATzSY ARYRK QMAVK KYLAA VL] (H-HS[ξAla(tetrazol-5-yl)]GIFA[ξAla(tetrazol-5-yl)]SYARYRKQMAVKKYLAAVL-NH2) | 91.9% | 83.7% | – | –
CC[C@H](C)[C@H](NC(=O)CNC(=O)C(Cc1nnn[nH]1)NC(=O)[C@H](CO)NC(=O)[C@@H](N)Cc1c[nH]cn1)C(=O)N[C@@H](Cc1ccccc1)C(=O)N[C@@H](C)C(=O)NC(Cc1nnn[nH]1)C(=O)NC(C)(C)C(=O)N[C@@H](Cc1ccc(O)cc1)C(=O)N[C@@H](CO)C(=O)N[C@@H](CCCNC(=N)N)C(=O)N[C@@H](Cc1ccc(O)cc1)C(=O)N[C@@H](CCCNC(=N)N)C(=O)N[C@@H](CCCCN)C(=O)N[C@@H](CCC(N)=O)C(=O)N[C@@H](CCSC)C(=O)N[C@@H](C)C(=O)N[C@H](C(=O)N[C@@H](CCCCN)C(=O)N[C@@H](CCCCN)C(=O)N[C@@H](Cc1ccc(O)cc1)C(=O)N[C@@H](CC(C)C)C(=O)N[C@@H](C)C(=O)N[C@@H](C)C(=O)N[C@H](C(=O)N[C@@H](CC(C)C)C(N)=O)C(C)C)C(C)C (stereo partly shown) [Peptide 4, HSTzGI FATzAiY SRYRK QMAVK KYLAA VL] (H-HS[ξAla(tetrazol-5-yl)]GIFA[ξAla(tetrazol-5-yl)][Aib]YSRYRKQMAVKKYLAAVL-NH2) | 95.4% | 88.4% | – | –
CC[C@H](C)[C@H](NC(=O)CNC(=O)C(Cc1nnn[nH]1)NC(=O)[C@H](CO)NC(=O)[C@@H](N)Cc1c[nH]cn1)C(=O)N[C@@H](Cc1ccccc1)C(=O)N[C@@H](C)C(=O)NC(Cc1nnn[nH]1)C(=O)N[C@@H](CO)C(=O)N[C@@H](Cc1ccc(O)cc1)C(=O)NC(C)(C)C(=O)N[C@@H](CCCNC(=N)N)C(=O)N[C@@H](Cc1ccc(O)cc1)C(=O)N[C@@H](CCCNC(=N)N)C(=O)N[C@@H](CCCCN)C(=O)N[C@@H](CCC(N)=O)C(=O)N[C@@H](CCSC)C(=O)N[C@@H](C)C(=O)N[C@H](C(=O)N[C@@H](CCCCN)C(=O)N[C@@H](CCCCN)C(=O)N[C@@H](Cc1ccc(O)cc1)C(=O)N[C@@H](CC(C)C)C(=O)N[C@@H](C)C(=O)N[C@@H](C)C(=O)N[C@H](C(=O)N[C@@H](CC(C)C)C(N)=O)C(C)C)C(C)C (stereo partly shown) [Peptide 5, HSTzGI FATzSY AiRYRK QMAVK KYLAA VL] (H-HS[ξAla(tetrazol-5-yl)]GIFA[ξAla(tetrazol-5-yl)]SY[Aib]RYRKQMAVKKYLAAVL-NH2) | 94.4% | 85.4% | – | –
CC[C@H](C)[C@H](NC(=O)CNC(=O)C(Cc1nnn[nH]1)NC(=O)[C@H](CO)NC(=O)[C@@H](N)Cc1c[nH]cn1)C(=O)N[C@@H](Cc1ccccc1)C(=O)N[C@@H](C)C(=O)NC(Cc1nnn[nH]1)C(=O)NC(C)(C)C(=O)N[C@@H](Cc1ccc(O)cc1)C(=O)NC(C)(C)C(=O)N[C@@H](CCCNC(=N)N)C(=O)N[C@@H](Cc1ccc(O)cc1)C(=O)N[C@@H](CCCNC(=N)N)C(=O)N[C@@H](CCCCN)C(=O)N[C@@H](CCC(N)=O)C(=O)N[C@@H](CCSC)C(=O)N[C@@H](C)C(=O)N[C@H](C(=O)N[C@@H](CCCCN)C(=O)N[C@@H](CCCCN)C(=O)N[C@@H](Cc1ccc(O)cc1)C(=O)N[C@@H](CC(C)C)C(=O)N[C@@H](C)C(=O)N[C@@H](C)C(=O)N[C@H](C(=O)N[C@@H](CC(C)C)C(N)=O)C(C)C)C(C)C (stereo partly shown) [Peptide 6, HSTzGI FATzAiY AiRYRK QMAVK KYLAA VL] (H-HS[ξAla(tetrazol-5-yl)]GIFA[ξAla(tetrazol-5-yl)][Aib]Y[Aib]RYRKQMAVKKYLAAVL-NH2) | 94.0% | 87.5% | – | –
CC[C@H](C)[C@H](NC(=O)CNC(=O)C(Cc1nnn[nH]1)NC(=O)[C@H](CO)NC(=O)[C@@H](N)Cc1c[nH]cn1)C(=O)N[C@@H](Cc1ccccc1)C(=O)N[C@H](C(=O)NC(Cc1nnn[nH]1)C(=O)NC(C)(C)C(=O)N[C@@H](Cc1ccc(O)cc1)C(=O)NC(C)(C)C(=O)N[C@@H](CCCNC(=N)N)C(=O)N[C@@H](Cc1ccc(O)cc1)C(=O)N[C@@H](CCCNC(=N)N)C(=O)N[C@@H](CCCCN)C(=O)N[C@@H](CCC(N)=O)C(=O)N[C@@H](CCSC)C(=O)N[C@@H](C)C(=O)N[C@H](C(=O)N[C@@H](CCCCN)C(=O)N[C@@H](CCCCN)C(=O)N[C@@H](Cc1ccc(O)cc1)C(=O)N[C@@H](CC(C)C)C(=O)N[C@@H](C)C(=O)N[C@@H](C)C(=O)N[C@H](C(=O)N[C@@H](CC(C)C)C(N)=O)C(C)C)C(C)C)[C@@H](C)O (stereo partly shown) [Peptide 7, HSTzGI FTTzAiY AiRYRK QMAVK KYLAA VL] (H-HS[ξAla(tetrazol-5-yl)]GIFT[ξAla(tetrazol-5-yl)][Aib]Y[Aib]RYRKQMAVKKYLAAVL-NH2) | 91.8% | 83.5% | – | –
CC[C@H](C)[C@H](NC(=O)CNC(=O)C(Cc1nnn[nH]1)NC(=O)[C@H](CO)NC(=O)[C@@H](N)Cc1c[nH]cn1)C(=O)N[C@@H](Cc1ccccc1)C(=O)N[C@H](C(=O)NC(Cc1nnn[nH]1)C(=O)N[C@@H](CO)C(=O)N[C@@H](Cc1ccc(O)cc1)C(=O)N[C@@H](CO)C(=O)N[C@@H](CCCNC(=N)N)C(=O)N[C@@H](Cc1ccc(O)cc1)C(=O)N[C@@H](CCCNC(=N)N)C(=O)N[C@@H](CCCCN)C(=O)N[C@@H](CCC(N)=O)C(=O)N[C@@H](CCSC)C(=O)N[C@@H](C)C(=O)N[C@H](C(=O)N[C@@H](CCCCN)C(=O)N[C@@H](CCCCN)C(=O)N[C@@H](Cc1ccc(O)cc1)C(=O)N[C@@H](CC(C)C)C(=O)N[C@@H](C)C(N)=O)C(C)C)[C@@H](C)O (stereo partly shown) [Peptide 8, HSTzGI FTTzSY SRYRK QMAVK KYLA] (H-HS[ξAla(tetrazol-5-yl)]GIFT[ξAla(tetrazol-5-yl)]SYSRYRKQMAVKKYLA-NH2) | 95.1% | 84.1% | – | –
HSTzGIFTTzSYSRYRKQNIAVKKYLAAVL [Reference Example 5] (HSXGIFTXSYSRYRKQXAVKKYLAAVL; N-acetyl; C-terminal amide; Tz residues; modified PACAP peptide; MOD_RES (1)..(1) …ON; MUTAGEN (3)..(3) Xaa is amino acid wherein carboxy group of asparatic acid is substituted with tetrazole; MUTAGEN (8)..(8) Xaa is amino acid wherein carboxy group of asparatic acid is substituted with tetrazole; MUTAGEN (17)..(17) Xaa is Nle) | – | – | 98.1% | 92.9%
